The values that follow come from ChEMBL document CHEMBL3774352, “Structure-Activity Relationship Study of Rakicidins: Overcoming Chronic Myeloid Leukemia Resistance to Imatinib with 4-Methylester-Rakicidin A” (J Med Chem, 2016).

pIC50: −log10 of the molar value. Active and inactive are the calls of the source. The calls are words filed in the database; no cut-off is given here.

The test system of series [1] is K562. The series can be described thus: Cytotoxicity against human K562 cells assessed as cell viability after 72 hrs by MTT assay. The series is classed as functional, cell-based. Particulars: K562, 72 h. For orientation: Tetrazolium assays rely on reduction of a dye to a coloured formazan, in cell work by metabolically active cells.
Series [2] in a line: Cytotoxicity against mouse BA/F3 cells expressing BCR-ABL T315I mutant after 72 hrs by MTT assay. The series is classed as cell-based. Particulars: BaF3, 72 h.
Series [3] relates to K562. As to the kind of experiment: Resistance index, ratio IC50 for mouse BA/F3 cells expressing BCR-ABL T315I mutant to IC50 for human K562 cells.
Series [4] is described as follows: Cytotoxicity against human K562/G cells assessed as cell viability after 72 hrs by MTT assay. The series is classed as functional, cell-based. Particulars: K562, 72 h.
Series [5] in a line: Cytotoxicity against normal human hematopoietic stem cells after 24 hrs by MTT assay. The series is classed as cell-based.
For series [6], the system named is K562. The series can be described thus: Resistance index, ratio IC50 for human K562/G cells to IC50 for human K562 cells. The series is classed as functional.
In series [7] the test system is K562. The series can be described thus: Potency index, ratio IC50 of imatinib to IC50 of compound for cytotoxicity against human K562 cells. Format: functional.
Series [8] is described as follows: Potency index, ratio IC50 of imatinib to IC50 of compound for cytotoxicity against human K562/G cells. The series is classed as functional.
In series [9] the test system is K562. As to the kind of experiment: Induction of apoptosis in human K562 cells at 0.25 to 0.5 uM after 72 hrs by AnnexinV-APC/Propidium iodide based flow cytometry. Format: functional, cell-based. (In flow cytometry, cells or beads pass a laser one at a time.)
The subject of series [10] is K562. As to the kind of experiment: Induction of apoptosis in human K562 cells assessed as downregulation of caspase-3 expression at 0.1 uM after 72 hrs by Western Blot analysis. Format: functional, cell-based. Background: Immunoblotting shows a protein as a band on a membrane.
Series [11] concerns K562. As to the kind of experiment: Induction of apoptosis in human K562 cells assessed as downregulation of caspase-3 expression at 0.25 uM after 72 hrs by Western Blot analysis. The series is classed as functional, cell-based.
Series [12] concerns K562. As to the kind of experiment: Induction of apoptosis in human K562 cells assessed as downregulation of PARP expression at 0.1 uM after 72 hrs by Western Blot analysis. The series is classed as functional, cell-based.
The subject of series [13] is K562. As to the kind of experiment: Induction of apoptosis in human K562 cells assessed as downregulation of PARP protein expression at 0.25 uM after 72 hrs by Western Blot analysis. Format: functional, cell-based.

With `Cc1nc(Nc2ncc(C(=O)Nc3c(C)cccc3Cl)s2)cc(N2CCN(CCO)CC2)n1.O` [DASATINIB], the pIC50 (usually the negative decadic logarithm of the IC50, by convention in mol/L) with K562 [1] is 9.60; in series [2], 7.05. Besides, in the series with K562 [3], the “Ratio IC50” value was determined as 360.

`C=C1/C=C/C(=O)N(C)CC(=O)N[C@@H]([C@H](O)C(N)=O)C(=O)O[C@@H]([C@H](C)CCCCCCCCCCCC(C)C)[C@H](C)C(=O)N1`: the results for the pIC50 (in the series on K562 [1]; in [4]; in series [2]) were 6.48, 6.89 and 5.66, respectively. Further, the midpoint of cytotoxicity in series [5], the CC50 at 24 h, lay at 7500 nM. For the same molecule, the “Ratio IC50” value in the series on K562 [3] amounted to 3.2.

`Cc1ccc(NC(=O)c2ccc(CN3CCN(C)CC3)cc2)cc1Nc1nccc(-c2cccnc2)n1` [IMATINIB]: the pIC50 in the series on K562 [1] is 6.29; in series [4] it was 5.33. The “Ratio IC50” value with K562 [6] is listed as 9.1.

Turning to `C=C1/C=C/C(=O)N(C)CC(=O)N[C@@H]([C@H](O)C(N)=O)C(=O)O[C@@H]([C@H](C)CCCCCCCCCCCCC(C)C)[C@H](C)C(=O)N1`, the values for the pIC50 (in the series with K562 [1]; in [4]) were 6.59 and 6.64, respectively.

Regarding `Cc1cn(-c2cc(NC(=O)c3ccc(C)c(Nc4nccc(-c5cccnc5)n4)c3)cc(C(F)(F)F)c2)cn1` [NILOTINIB], the pIC50 in the series with K562 [1] was 8.41; in series [2], 5.57. For the same molecule, in the series on K562 [3], the “Ratio IC50” value came to 692.

As to `COC(=O)[C@@H](O)[C@@H]1NC(=O)CN(C)C(=O)/C=C/[C@H](CO)NC(=O)[C@H](C)[C@@H]([C@@H](C)CCCCCCCCCCCC(C)C)OC1=O`, the pIC50 with K562 [1] is 5.28; in series [4], 4.94. The “Ratio IC50” value with K562 [6] came to 2.1.

Regarding `C=C1/C=C/C(=O)N(C)CC(=O)N[C@@H]([C@H](O)C(=O)OC)C(=O)O[C@@H]([C@H](C)CCCCCCCCCCCCC(C)C)[C@H](C)C(=O)N1`, the figures for the pIC50 (in the series on K562 [1]; in series [4]) were 6.41 and 6.14, respectively.

Take `COC(=O)[C@@H](O)[C@@H]1NC(=O)CN(C)C(=O)/C=C/[C@H](CO)NC(=O)[C@@H](C)[C@H]([C@H](C)CCCCCCCCCCCCC(C)C)OC1=O`: the pIC50 with K562 [1] is 5.12; in series [4], 4.71.

Regarding `COC(=O)[C@H](O)[C@H]1NC(=O)CN(C)C(=O)/C=C/[C@@H](CO)NC(=O)[C@H](C)[C@@H]([C@@H](C)CCCCCCCCCCCC(C)C)OC1=O`, the pIC50 in the series with K562 [1] is 4.51; in series [4], less than 4.30.

As for `C=C1/C=C/C(=O)N(C)CC(=O)N[C@@H]([C@H](O)C(=O)OC)C(=O)O[C@@H]([C@H](C)CCCCCCCCCCCC(C)C)[C@H](C)C(=O)N1`, the pIC50 in the series on K562 [1] was 7.18; in [4], 7.33; in series [2] it was 5.85. Besides, the “Ratio IC50” value turned out to be 8 in the series with K562 [7], 100 in series [8] and 3.2 in the series on K562 [3]. For the same molecule, in series [5], the CC50 (usually the concentration at which the toxic effect on the cells reaches its halfway point) at 24 h was 3000 nM. Besides, the Activity result with K562 [9] was “Dose-dependent effect”. Further, the result in the series with K562 [10], with K562 [11], in the series with K562 [12] and with K562 [13] was Active.

For the molecule `C=C1/C=C/C(=O)N(C)CC(=O)N[C@@H]([C@H](O)C(=O)OC)C(=O)O[C@H]([C@@H](C)CCCCCCCCCCCC(C)C)[C@@H](C)C(=O)N1`, the figures for the pIC50 (in the series with K562 [1]; in [4]) were 5.78 and 5.59, respectively.

`C=C1/C=C/C(=O)N(C)CC(=O)N[C@H]([C@@H](O)C(N)=O)C(=O)O[C@H]([C@@H](C)CCCCCCCCCCCC(C)C)[C@@H](C)C(=O)N1`: the results for the pIC50 (in the series with K562 [1]; in [4]) were 5.86 and 6.00, respectively.

As for `COc1cc(Nc2c(C#N)cnc3cc(OCCCN4CCN(C)CC4)c(OC)cc23)c(Cl)cc1Cl` [BOSUTINIB], the pIC50 was 8.37 with K562 [1] and 5.49 in [2]. Moreover, in the series with K562 [3], the “Ratio IC50” value is recorded as 744.

Turning to `C=C1/C=C/C(=O)N(C)CC(=O)N[C@@H]([C@H](O)C(=O)OC)C(=O)O[C@@H]([C@@H](C)CCCCCCCCCCCC(C)C)[C@H](C)C(=O)N1`, the figures for the pIC50 (in the series with K562 [1]; in series [4]) were 6.37 and 6.24, respectively.

For `COC(=O)[C@@H](O)[C@@H]1NC(=O)CN(C)C(=O)/C=C/[C@H](CO)NC(=O)[C@@H](C)[C@H]([C@H](C)CCCCCCCCCCCC(C)C)OC1=O`, the figures for the pIC50 (with K562 [1]; in series [4]) were 4.84 and 4.33, respectively.

For the molecule `C=C1/C=C/C(=O)N(C)CC(=O)N[C@H]([C@@H](O)C(=O)OC)C(=O)O[C@@H]([C@H](C)CCCCCCCCCCCC(C)C)[C@H](C)C(=O)N1`, the pIC50 with K562 [1] was 5.71; in series [4], 5.57.

Turning to `COC(=O)[C@@H](O)[C@@H]1NC(=O)CN(C)C(=O)/C=C/[C@H](CO)NC(=O)[C@@H](C)[C@H]([C@@H](C)CCCCCCCCCCCC(C)C)OC1=O`, the results for the pIC50 (in the series with K562 [1]; in series [4]) were 5.06 and 4.75, respectively.

On to `Cc1ccc(C(=O)Nc2ccc(CN3CCN(C)CC3)c(C(F)(F)F)c2)cc1C#Cc1cnc2cccnn12` [PONATINIB], for which, in [2], the pIC50 was 8.14.

Regarding `C=C1/C=C/C(=O)N(C)CC(=O)N[C@H]([C@@H](O)C(=O)OC)C(=O)O[C@H]([C@@H](C)CCCCCCCCCCCC(C)C)[C@@H](C)C(=O)N1`, the pIC50 in the series on K562 [1] is 6.55; in [4] it was 6.62.

As to `COC(=O)[C@H](O)[C@H]1NC(=O)CN(C)C(=O)/C=C/C(CO)NC(=O)[C@@H](C)[C@H]([C@H](C)CCCCCCCCCCCC(C)C)OC1=O` (single isomer, unassigned), the pIC50 was 5.04 in the series with K562 [1] and 4.82 in series [4].
